According to publication PMC11114221, “A pattern recognition artificial olfactory system based on human olfactory receptors and organic synaptic devices” (Science Advances, 2024):

Tests used:
Assay in all cases: tryptophan fluorescence quenching
Assay type in all cases: binding
Conditions in all cases: receptor nanodiscs 500 nM; 20 mM Hepes, 100 mM NaCl, pH 8.0
hOR52D1 = biological target: T1, hOR52D1 (Homo sapiens, UniProt Q9H346)
T1 construct: gene OR52D1; E. coli SuptoxR (Rosetta 2 (DE3) with RraA); ~38 kDa
T1 sequence (Q9H346 1-318): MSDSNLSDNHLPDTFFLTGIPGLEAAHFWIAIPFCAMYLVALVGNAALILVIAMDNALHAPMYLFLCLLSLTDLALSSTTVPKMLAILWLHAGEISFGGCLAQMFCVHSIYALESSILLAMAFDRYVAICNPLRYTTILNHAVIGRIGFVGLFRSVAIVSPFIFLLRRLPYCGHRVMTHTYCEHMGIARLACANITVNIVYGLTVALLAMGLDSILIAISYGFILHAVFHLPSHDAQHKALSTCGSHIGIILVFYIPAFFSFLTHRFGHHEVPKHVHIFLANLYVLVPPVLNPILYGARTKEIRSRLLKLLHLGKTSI

hOR51E2 = biological target: T2, hOR51E2 (Homo sapiens, UniProt Q9H255)
T2 construct: gene OR51E2; E. coli SuptoxR (Rosetta 2 (DE3) with RraA); ~38 kDa
T2 sequence (Q9H255 1-320): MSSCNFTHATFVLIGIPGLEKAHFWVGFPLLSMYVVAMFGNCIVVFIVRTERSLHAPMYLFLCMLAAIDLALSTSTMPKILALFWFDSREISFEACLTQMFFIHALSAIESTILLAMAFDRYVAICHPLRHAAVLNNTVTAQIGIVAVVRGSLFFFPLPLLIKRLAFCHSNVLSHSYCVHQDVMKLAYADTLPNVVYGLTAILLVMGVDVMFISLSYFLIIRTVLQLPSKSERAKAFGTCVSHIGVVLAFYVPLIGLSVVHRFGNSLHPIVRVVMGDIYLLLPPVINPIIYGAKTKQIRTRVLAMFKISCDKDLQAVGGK

hOR51E1 = biological target: T3, hOR51E1 (Homo sapiens, UniProt Q8TCB6)
T3 construct: gene OR51E1; E. coli SuptoxR (Rosetta 2 (DE3) with RraA); ~38 kDa
T3 sequence (Q8TCB6 1-318): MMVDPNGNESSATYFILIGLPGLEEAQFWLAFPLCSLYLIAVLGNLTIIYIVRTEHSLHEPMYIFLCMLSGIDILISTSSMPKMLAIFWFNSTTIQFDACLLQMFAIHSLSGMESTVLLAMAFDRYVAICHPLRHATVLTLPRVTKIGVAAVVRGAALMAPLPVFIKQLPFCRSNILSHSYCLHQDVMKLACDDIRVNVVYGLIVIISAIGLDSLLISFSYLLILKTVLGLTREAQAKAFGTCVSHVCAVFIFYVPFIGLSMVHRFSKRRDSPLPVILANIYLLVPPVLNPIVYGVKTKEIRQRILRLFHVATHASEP

Compound	∆F/F0 (%) (hOR52D1)	∆F/F0 (%) (hOR51E2)	∆F/F0 (%) (hOR51E1)
CCCC(=O)O [BA, butyric acid]	each hOR ND displayed distinct binding affinities toward the SCFAs	each hOR ND displayed distinct binding affinities toward the SCFAs	each hOR ND displayed distinct binding affinities toward the SCFAs
CCCCCC(=O)O [HA, hexanoic acid]	each hOR ND displayed distinct binding affinities toward the SCFAs	each hOR ND displayed distinct binding affinities toward the SCFAs	each hOR ND displayed distinct binding affinities toward the SCFAs
CCC(=O)O [PA, propionic acid]	each hOR ND displayed distinct binding affinities toward the SCFAs	each hOR ND displayed distinct binding affinities toward the SCFAs	each hOR ND displayed distinct binding affinities toward the SCFAs
CCCCC(=O)O [VA, valeric acid]	each hOR ND displayed distinct binding affinities toward the SCFAs	each hOR ND displayed distinct binding affinities toward the SCFAs	each hOR ND displayed distinct binding affinities toward the SCFAs
